Like-named read-outs stand apart in the source and are kept apart here.
Tests used:
[1] = cited from earlier work
[2] = Study 2: effect of ospemifene on bupropion pharmacokinetics; conditions: for AUCt, mean (CV%): 0-96 h; for AUCt, mean (CV%) / Cmax, mean (CV%) / t1/2, mean (CV%) / tmax, median (range) / AUC∞, mean (CV%) / CL/F, mean (CV%): 150 mg bupropion; for AUC∞, mean (CV%): N = 16
Source text: (§4) Studies 1 and 2 were open-label, two-period, single-center, Phase 1, balanced, crossover studies in healthy postmenopausal women. […] Study 3 was a Phase 1, open-label, single-center, balanced, two-period, crossover study in healthy postmenopausal women who were not homozygous for the CYP2C19*2 genotype (CYP2C19*2 indicates the CYP2C19 variant that is associated with reduced activity). In each study, equal numbers of subjects were assigned to the two different treatment sequences.
(§5) The study periods were separated by ≥14 days.
(§6) With the exception of tmax, which was analyzed using the nonparametric Wilcoxon’s test, pharmacokinetic parameters were analyzed after log-transformation using analysis of variance (ANOVA), with sequence, period, and treatment as fixed effects.

[3] = 10 mg racemic warfarin; for AUC∞, mean (CV%): N = 16
Source text: as §4
The study periods were separated by ≥3 weeks.
as §6

[4] = Overall safety in the three clinical studies; assay type: in vivo, human; conditions: healthy postmenopausal women, with and without ospemifene
Source text: All experiments with human subjects were based on voluntary informed consent and the clinical study protocols had appropriate ethical and regulatory approval. Subjects were asked to immediately report any significant adverse events (AEs) that occurred during the study; minor AEs were reported at clinic visits. AEs were coded and classified according to the Medical Dictionary for Regulatory Activities.

[5] = female, human, in vivo, 150 mg
Source text: as §4, §5, §6

clinical = conditions: female, human, in vivo
Source text: as §4, §5, §6

CYP2B6 = molecular target: T1, CYP2B6 (Homo sapiens, UniProt P20813); assay: biochemical; conditions: read-out: IC50, Bupropion hydroxylation; human liver microsomes, probe 1 μM
T1 sequence (P20813 1-491): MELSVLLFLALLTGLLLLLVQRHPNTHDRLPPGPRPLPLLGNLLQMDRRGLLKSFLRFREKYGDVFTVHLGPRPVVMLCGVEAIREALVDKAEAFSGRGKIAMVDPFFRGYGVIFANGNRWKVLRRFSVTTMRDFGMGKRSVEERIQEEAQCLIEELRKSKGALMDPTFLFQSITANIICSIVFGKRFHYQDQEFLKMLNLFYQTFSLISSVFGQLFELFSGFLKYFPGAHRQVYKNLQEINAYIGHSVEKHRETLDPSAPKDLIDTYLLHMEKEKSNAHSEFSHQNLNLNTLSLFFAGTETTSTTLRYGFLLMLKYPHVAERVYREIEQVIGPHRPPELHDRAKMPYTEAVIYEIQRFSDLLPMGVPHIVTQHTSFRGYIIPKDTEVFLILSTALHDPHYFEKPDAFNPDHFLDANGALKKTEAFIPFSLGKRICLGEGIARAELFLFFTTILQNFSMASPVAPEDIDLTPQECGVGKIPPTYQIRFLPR
Method: (§1) Human liver microsomes were prepared and pooled from ten human livers (HL20–24,28–32) as previously described. Human liver samples were obtained from the University Hospital of Oulu as surplus tissue from cadaver kidney transplant donors. The collection of surplus tissue was approved by the Ethics Committee of the Medical Faculty of the University of Oulu, Finland. All donors were Caucasians ranging in age from 21 to 62 years; four were female and six were male. Detailed information on each donor has been published previously. Protein concentrations were measured using the Bradford method.
(§2) In vitro inhibition of CYP isoforms was first assessed using the N-in-one approach (also called the cocktail approach). CYP-selective substrates and reactions are listed in Table 1; concentrations were roughly at or below the respective Michaelis-Menten coefficients. […] A Micromass LCT time-of-flight high-resolution mass spectrometer (Micromass Ltd., Manchester, UK) equipped with a Z-spray electrospray ionization source was used for the monitoring of CYP-selective reactions. Integrated mass chromatogram peak areas were normalized versus internal standards before comparing metabolites in different preparations. More details of the assay are available in previous publications.
(§3) Dixon, Lineweaver-Burk, Hanes, and Hofstee plots were used for the analysis of the type of inhibition.

CYP2C19 = CYP2C19 (Homo sapiens, UniProt P33261); assay: biochemical; conditions: human liver microsomes, probe 2 μM
Sequence of CYP2C19 (P33261 whole entry): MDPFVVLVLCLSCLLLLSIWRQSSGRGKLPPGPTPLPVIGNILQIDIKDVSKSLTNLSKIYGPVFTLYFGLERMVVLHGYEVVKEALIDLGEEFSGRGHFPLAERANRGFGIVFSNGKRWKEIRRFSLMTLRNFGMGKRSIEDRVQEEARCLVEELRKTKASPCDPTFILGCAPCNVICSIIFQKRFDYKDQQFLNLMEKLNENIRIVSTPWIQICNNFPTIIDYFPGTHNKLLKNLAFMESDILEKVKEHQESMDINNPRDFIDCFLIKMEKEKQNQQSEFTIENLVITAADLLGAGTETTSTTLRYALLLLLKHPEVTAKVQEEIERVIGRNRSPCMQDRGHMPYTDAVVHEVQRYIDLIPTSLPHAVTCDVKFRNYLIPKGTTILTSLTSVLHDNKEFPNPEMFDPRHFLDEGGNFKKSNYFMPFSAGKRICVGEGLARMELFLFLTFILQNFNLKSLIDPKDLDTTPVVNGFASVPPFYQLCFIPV
Method: as §1, §2, §3

CYP2C9 = CYP2C9 (Homo sapiens, UniProt P11712); conditions: read-out: IC50, Tolbutamide methylhydroxylation; human liver microsomes, probe 4 μM
Sequence of CYP2C9 (P11712 whole entry): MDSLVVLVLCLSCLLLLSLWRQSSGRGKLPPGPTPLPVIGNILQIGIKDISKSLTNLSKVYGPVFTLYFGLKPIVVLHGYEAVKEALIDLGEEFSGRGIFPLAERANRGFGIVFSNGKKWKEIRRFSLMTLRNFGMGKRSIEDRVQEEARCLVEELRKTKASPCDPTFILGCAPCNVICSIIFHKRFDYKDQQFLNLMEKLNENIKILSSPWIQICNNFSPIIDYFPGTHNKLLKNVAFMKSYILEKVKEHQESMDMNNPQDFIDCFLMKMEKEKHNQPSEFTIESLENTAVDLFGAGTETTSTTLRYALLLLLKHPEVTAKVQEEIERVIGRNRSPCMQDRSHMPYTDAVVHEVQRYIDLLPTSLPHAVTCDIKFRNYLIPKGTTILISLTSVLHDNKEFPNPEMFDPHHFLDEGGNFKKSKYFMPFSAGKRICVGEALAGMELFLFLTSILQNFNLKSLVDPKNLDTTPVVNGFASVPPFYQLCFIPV
Method: as §1, §2, §3

CYP2C8 = molecular target: T2, CYP2C8 (Homo sapiens, UniProt P10632); assay: N-in-one CYP inhibition assay in human liver microsomes; type of inhibition; conditions: read-out: IC50, Amodiaquine desethylation; human liver microsomes, probe 2 μM
T2 sequence (P10632 1-490): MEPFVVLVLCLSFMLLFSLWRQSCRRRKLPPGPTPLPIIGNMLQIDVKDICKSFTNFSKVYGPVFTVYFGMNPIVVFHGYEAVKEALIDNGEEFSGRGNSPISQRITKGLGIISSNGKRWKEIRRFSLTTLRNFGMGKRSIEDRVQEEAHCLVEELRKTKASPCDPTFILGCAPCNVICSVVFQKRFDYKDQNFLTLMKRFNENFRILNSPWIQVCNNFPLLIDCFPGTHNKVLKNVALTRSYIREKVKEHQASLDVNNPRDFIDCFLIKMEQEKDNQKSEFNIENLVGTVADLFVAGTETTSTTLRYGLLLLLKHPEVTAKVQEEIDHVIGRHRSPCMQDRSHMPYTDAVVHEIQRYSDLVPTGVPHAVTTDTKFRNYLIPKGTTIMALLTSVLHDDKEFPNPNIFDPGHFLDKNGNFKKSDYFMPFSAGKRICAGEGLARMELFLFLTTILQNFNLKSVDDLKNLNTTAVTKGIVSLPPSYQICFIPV
Method: as §1, §2, §3

CYP2D6 = CYP2D6 (Homo sapiens, UniProt P10635); assay: as above; conditions: read-out: IC50, Dextromethorphan O-demethylation; human liver microsomes, probe 0.2 μM
Sequence of CYP2D6 (P10635 whole entry): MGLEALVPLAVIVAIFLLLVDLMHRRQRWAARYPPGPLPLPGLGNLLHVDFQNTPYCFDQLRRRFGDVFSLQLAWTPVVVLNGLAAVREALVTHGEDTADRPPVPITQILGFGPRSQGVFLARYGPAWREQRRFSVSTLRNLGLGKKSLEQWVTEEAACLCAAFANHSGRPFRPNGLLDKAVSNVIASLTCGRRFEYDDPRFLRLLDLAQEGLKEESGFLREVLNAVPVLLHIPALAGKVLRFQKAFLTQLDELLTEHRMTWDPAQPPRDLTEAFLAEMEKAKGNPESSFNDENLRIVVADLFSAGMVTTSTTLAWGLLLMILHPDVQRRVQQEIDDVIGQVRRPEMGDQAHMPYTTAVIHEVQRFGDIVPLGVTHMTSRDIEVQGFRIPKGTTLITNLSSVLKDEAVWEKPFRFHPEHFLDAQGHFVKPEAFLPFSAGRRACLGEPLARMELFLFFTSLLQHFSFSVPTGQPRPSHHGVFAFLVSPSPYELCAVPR
Method: as §1, §2, §3

CYP2A6 = molecular target: T3, CYP2A6 (Homo sapiens, UniProt P11509); assay: N-in-one CYP inhibition assay in human liver microsomes; conditions: read-out: IC50, Coumarin 7-hydroxylation; human liver microsomes, probe 2 μM
T3 sequence (P11509 1-494): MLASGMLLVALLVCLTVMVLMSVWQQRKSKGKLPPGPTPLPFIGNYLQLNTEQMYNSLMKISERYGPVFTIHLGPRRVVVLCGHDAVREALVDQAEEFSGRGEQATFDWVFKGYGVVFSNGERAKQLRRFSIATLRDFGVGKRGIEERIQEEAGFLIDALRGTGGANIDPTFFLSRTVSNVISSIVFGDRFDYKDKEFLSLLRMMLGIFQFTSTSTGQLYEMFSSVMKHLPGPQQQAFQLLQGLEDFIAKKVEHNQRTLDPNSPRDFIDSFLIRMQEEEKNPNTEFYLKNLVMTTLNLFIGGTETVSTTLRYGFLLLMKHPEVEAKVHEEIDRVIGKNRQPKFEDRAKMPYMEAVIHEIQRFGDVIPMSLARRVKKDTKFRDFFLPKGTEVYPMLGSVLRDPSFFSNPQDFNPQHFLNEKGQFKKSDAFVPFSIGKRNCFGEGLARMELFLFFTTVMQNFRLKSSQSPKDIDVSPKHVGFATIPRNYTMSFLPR
Method: as §1, §2

CYP2E1 = CYP2E1 (Homo sapiens, UniProt P05181); assay: as above; conditions: read-out: IC50, Chlorzoxazone 6-hydroxylation; human liver microsomes, probe 6 μM
Sequence of CYP2E1 (P05181 whole entry): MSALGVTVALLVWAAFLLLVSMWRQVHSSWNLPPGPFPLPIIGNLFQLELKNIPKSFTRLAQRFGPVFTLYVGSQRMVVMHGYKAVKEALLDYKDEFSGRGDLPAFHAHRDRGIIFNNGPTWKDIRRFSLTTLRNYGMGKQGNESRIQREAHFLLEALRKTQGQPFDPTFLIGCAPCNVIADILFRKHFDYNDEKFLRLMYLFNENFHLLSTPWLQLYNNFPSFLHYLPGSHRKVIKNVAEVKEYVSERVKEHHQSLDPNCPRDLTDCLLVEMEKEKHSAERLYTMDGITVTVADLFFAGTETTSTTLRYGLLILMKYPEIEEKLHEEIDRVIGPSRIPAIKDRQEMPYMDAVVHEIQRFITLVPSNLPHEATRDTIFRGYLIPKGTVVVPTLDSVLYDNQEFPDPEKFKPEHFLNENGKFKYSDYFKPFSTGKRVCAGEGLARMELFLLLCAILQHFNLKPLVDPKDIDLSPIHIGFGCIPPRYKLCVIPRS
Method: as §1, §2

CYP1A2 = molecular target: T4, CYP1A2 (Homo sapiens, UniProt P05177); assay: biochemical; conditions: read-out: IC50, Melatonin 6-hydroxylation; human liver microsomes, probe 4 μM
T4 sequence (P05177 1-516): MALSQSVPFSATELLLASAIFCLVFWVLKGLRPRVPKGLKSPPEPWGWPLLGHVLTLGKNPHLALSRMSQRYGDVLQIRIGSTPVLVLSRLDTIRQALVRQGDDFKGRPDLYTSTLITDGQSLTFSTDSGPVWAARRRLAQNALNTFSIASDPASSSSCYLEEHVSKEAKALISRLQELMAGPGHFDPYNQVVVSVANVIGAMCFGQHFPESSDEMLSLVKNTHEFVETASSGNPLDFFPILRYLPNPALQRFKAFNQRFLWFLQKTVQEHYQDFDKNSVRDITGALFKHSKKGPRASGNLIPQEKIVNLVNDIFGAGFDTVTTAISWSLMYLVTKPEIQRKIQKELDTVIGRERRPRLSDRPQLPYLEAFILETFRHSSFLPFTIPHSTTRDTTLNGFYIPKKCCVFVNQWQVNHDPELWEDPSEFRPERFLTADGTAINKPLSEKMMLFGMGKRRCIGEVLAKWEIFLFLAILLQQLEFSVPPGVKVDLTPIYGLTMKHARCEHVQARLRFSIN
Method: as §1, §2

CYP3A4 = CYP3A4 (Homo sapiens, UniProt P08684); assay: biochemical; conditions: human liver microsomes
Sequence of CYP3A4 (P08684 whole entry): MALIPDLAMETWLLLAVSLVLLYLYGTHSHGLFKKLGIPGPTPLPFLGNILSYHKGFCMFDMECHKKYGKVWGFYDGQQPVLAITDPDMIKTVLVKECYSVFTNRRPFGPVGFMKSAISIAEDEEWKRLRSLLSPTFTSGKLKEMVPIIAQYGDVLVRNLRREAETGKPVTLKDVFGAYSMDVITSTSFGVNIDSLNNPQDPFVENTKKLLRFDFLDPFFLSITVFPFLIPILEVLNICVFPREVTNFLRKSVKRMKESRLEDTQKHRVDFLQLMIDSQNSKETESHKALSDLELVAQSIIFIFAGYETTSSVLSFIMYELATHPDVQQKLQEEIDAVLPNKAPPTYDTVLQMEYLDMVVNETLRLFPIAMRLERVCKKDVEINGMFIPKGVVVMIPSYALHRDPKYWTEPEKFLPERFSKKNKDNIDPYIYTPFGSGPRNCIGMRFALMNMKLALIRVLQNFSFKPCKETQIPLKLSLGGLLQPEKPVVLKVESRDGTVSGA
Method: as §1, §2

[6] = tested on: CYP-mediated enzyme activities; assay: N-in-one CYP inhibition assay, summary for all other CYP-mediated activities; assay type: in vitro ADME; conditions: human liver microsomes; CYPs other than those named in the paragraph
[7] = repeated oral 60-mg dosing of ospemifene, no reference given; read-out: clinical Cmax; cited from earlier work
[8] = metabolites of ospemifene; cited from earlier work
[9] = Study 3: effect of ospemifene on omeprazole pharmacokinetics (metabolic ratios)
Source text: as §4
The study periods were separated by ≥14 days. In both study periods, blood samples for determination of plasma omeprazole, 5-hydroxyomeprazole, and omeprazole sulfone concentrations were collected before and at 1, 2, 3, 4, 6, and 8 h after omeprazole administration.
In Study 3, concentrations of omeprazole, 5-hydroxyomeprazole, and omeprazole sulfone were determined using a validated LC-MS/MS method. Pharmacokinetic parameters were analyzed after log-transformation using ANOVA, with sequence, period, and treatment as fixed effects. Primary pharmacokinetic parameters included the metabolic ratios of omeprazole/5-hydroxyomeprazole and omeprazole/omeprazole sulfone, based on plasma concentrations at 3 h, which reflected CYP2C19 and CYP3A4 activities, respectively.

O=C(c1ccc(OCCN2CCCCC2)cc1)c1c(-c2ccc(O)cc2)sc2cc(O)ccc12 [Raloxifene]
Decrease of the prothrombin time of patients on warfarin [1]: 10%

C[C@H]1NC(C)(C)CO[C@]1(O)c1cccc(Cl)c1 [Hydroxybupropion, hydroxybupropion]
AUCt, mean (CV%) ([2]; OSP (+)): 14.5 (31.7) μg h/mL
AUCt, mean (CV%) ([2]; OSP (−)): 14.3 (28.1) μg h/mL
Cmax, mean (CV%) ([2]; OSP (+)): 462 (29.0) ng/mL
t1/2, mean (CV%) ([2]; OSP (+)): 21.2 (18.0) h
tmax, median (range) ([2]; OSP (+)): 6.1 (5–8) h
AUC∞, mean (CV%) ([2]; OSP (+) 60 mg once daily): 15.2 (32.4) μg h/mL
Cmax, mean (CV%) ([2]; OSP (−)): 398 (30.6) ng/mL
t1/2, mean (CV%) ([2]; OSP (−)): 26.7 (18.8) h
tmax, median (range) ([2]; OSP (−)): 6.0 (5–24) h
AUC∞, mean (CV%) ([2]; OSP (−)): 15.5 (29.4) μg h/mL
Ratio of geometric least square means of AUC∞ (90% CI) ([2]; with and without ospemifene pretreatment): 0.977 (0.921–1.036)

CC(=O)C[C@H](c1ccccc1)c1c(O)c2ccccc2oc1=O [R-Warfarin]
Cmax, mean (CV%) ([3]; OSP (+)): 538 (15.4) ng/mL
tmax, median (range) ([3]; OSP (+)): 4 (2–8) h
AUC∞, mean (CV%) ([3]; OSP (+) 60 mg once daily): 32.8 (23.1) μg h/mL
Cmax, mean (CV%) ([3]; OSP (−)): 518 (15.2) ng/mL
tmax, median (range) ([3]; OSP (−)): 4 (2–6) h
AUC∞, mean (CV%) ([3]; OSP (−)): 31.3 (21.7) μg h/mL

CC(=O)CC(c1ccccc1)c1c(O)c2ccccc2oc1=O (centres unmarked) [warfarin]
Tolerability [4]: well tolerated

CC(=O)C[C@@H](c1ccccc1)c1c(O)c2ccccc2oc1=O [S-Warfarin, S-warfarin]
Cmax, mean (CV%) ([3]; OSP (+)): 513 (13.3) ng/mL
tmax, median (range) ([3]; OSP (+)): 4 (2–8) h
AUC∞, mean (CV%) ([3]; OSP (+) 60 mg once daily): 19.2 (30.2) μg h/mL
Cmax, mean (CV%) ([3]; OSP (−)): 497 (14.5) ng/mL
tmax, median (range) ([3]; OSP (−)): 4 (2–6) h
AUC∞, mean (CV%) ([3]; OSP (−)): 18.5 (29.9) μg h/mL

CC(NC(C)(C)C)C(=O)c1cccc(Cl)c1 (centres unmarked) [Bupropion, bupropion]
Tolerability [4]: well tolerated
AUCt, mean (CV%) [5]: 0.85 (33.7) μg h/mL
AUC∞, mean (CV%) [5]: 0.90 (32.3) μg h/mL
Tmax (clinical): 3 h
Cmax (clinical; 150 mg): 74.9 ng/mL
Tmax (clinical; 150 mg): 3.5 h
half-life (clinical; 150 mg): 30.8 h
CL/F, mean (CV%) ([2]; OSP (+)): 230 (38.1) mL/h
t1/2, mean (CV%) ([2]; OSP (+)): 29.5 (26.7) h
CL/F, mean (CV%) ([2]; OSP (−)): 185 (38.1) mL/h

OCCOc1ccc(/C(=C(/CCCl)c2ccccc2)c2ccc(O)cc2)cc1 [4-Hydroxy-ospemifene, 4-hydroxyospemifene]
IC50 (CYP2B6): 26.5 µM
IC50 (CYP2C19; read-out: IC50, Omeprazole 5-hydroxylation): 15.3 µM
IC50 (CYP2C19; read-out: IC50, Omeprazole demethylation): 19.7 µM
IC50 (CYP2C9): 1.1 µM
IC50 (CYP2C8): 27.7 µM
IC50 (CYP2D6): 25.5 µM
IC50 (CYP2A6): > 100 µM
IC50 (CYP2E1): > 100 µM
IC50 (CYP1A2): > 100 µM
IC50 (CYP3A4; read-out: IC50, Midazolam 1′-hydroxylation, probe 0.4 μM): > 100 µM
IC50 (CYP3A4; read-out: IC50, Omeprazole 3-hydroxylation, probe 2 μM): 50 µM
IC50 (CYP3A4; read-out: IC50, Omeprazole sulfoxidation, probe 2 μM): 35.9 µM
IC50 (CYP3A4; read-out: IC50, Testosterone 6β-hydroxylation, probe 1 μM): > 100 µM
IC50 [6]: > 25 µM
Cmax [7]: ~300 nM
share of the total metabolites [8]: roughly 70%

COc1ccc2[nH]c([S+]([O-])Cc3ncc(C)c(OC)c3C)nc2c1 (centres unmarked) [Omeprazole, omeprazole]
Tolerability [4]: well tolerated
Ratio ospemifene (+)/ospemifene (−) of metabolic ratio Omeprazole/5-hydroxyomeprazole (90% CI) ([9]; 3 h conc.): 0.97 (0.77–1.22)
Ratio ospemifene (+)/ospemifene (−) of metabolic ratio Omeprazole/Omeprazole sulfone (90% CI) ([9]; 3 h conc.): 0.97 (0.67–1.41)
Ratio ospemifene (+)/ospemifene (−) of metabolic ratio Omeprazole/5-hydroxyomeprazole (90% CI) ([9]; AUCt 0 to 8 h): 0.97 (0.88–1.08)
Ratio ospemifene (+)/ospemifene (−) of metabolic ratio Omeprazole/Omeprazole sulfone (90% CI) ([9]; AUCt 0 to 8 h): 1.00 (0.88–1.15)

Reference: article PMC3742231 (International Journal of Molecular Sciences, 2013)
